The numbers were not newly measured in patent US20090169586A1, “STABLE PACKAGED DOSAGE FORM AND PROCESS THEREFOR” (priority 2006, published 2009), which cites them from elsewhere.

For data set [1], the system named is skin's protection against sunburn. Particulars: 24 mg taken for more than 10 weeks.
The test system of data set [2] is children exposed to long-term doses of radiation. Conditions: 40 mg capsules twice daily for 3 months, 709 children.
Data set [3] concerns patients with long-standing non-insulin dependent diabetes mellitus (NIDDM). Particulars: 60 mg/day for 3 weeks, 20 NIDDM patients.
The subject of data set [4] is patients with exercise-induced asthma (EIA). Conditions: daily dose of 64 mg, 38 patients; all placebo patients showed more than 15% FEV1 reduction.

Turning to `CC1=C(/C=C/C(C)=C/C=C/C(C)=C/C=C/C=C(C)/C=C/C=C(C)/C=C/C2=C(C)CCCC2(C)C)C(C)(C)CCC1` [beta-carotene from Dunaliella, beta-carotene], the “skin's protection against sunburn” value in data set [1] is on record as “double the skin's protection against sunburn”. Also, the “serum markers for oxidisation” value in data set [2] is “reduced serum markers for oxidisation”. For the same molecule, the LDL oxidation entry in data set [3] was “normalised high LDL oxidation”. Besides, in data set [4], the “patients protected against EIA” value is reported as 53%.
